Publication PMC6359675, “Functionalization of the Chalcone Scaffold for the Discovery of Novel Lead Compounds Targeting Fungal Infections” (Molecules, 2019)
“And” between values parts separate entries of the source, which are not always exact repeats. Equal values may be shown once. Read-outs that look alike come from different tables or passages of the source.

Columns and labels:
C. albicans ATCC 10231 = assay: In vitro susceptibility testing, microdilution broth (EUCAST), C. albicans control strain; type: cell-based, Candida albicans; conditions: for IC50 / inhibition at 100 µM: Candida albicans; for inhibition at 100 µM: ATCC10231, 24 h
Protocol: (§1) The in vitro antifungal activity of the chalcones was evaluated by a microdilution broth method in accordance with the guidelines provided by the EUCAST Edef 7.3 [22]. Briefly, all strains were cultured on Sabauraud dextrose, then inocula, prepared at 0.5 McFarland, were diluted 1:20 in RPMI-1640 medium (Gibco®, ThermoFisher Scientific Inc., Waltham, MA, USA), containing glucose 2%, 0.3% levo-glutamine buffered to pH 7.0 with 0.165 M 3-(N-morpholino)propanesulfonic acid (MOPS) to yield 1-5 × 10^5 cells/mL. A total of 100 µL of the yeast suspension was inoculated in a 96-well microplate and incubated with 100 µL of serially 2-fold dilution of the compound in the range 200–6.25 µM. The following controls were included: yeast suspensions incubated in RPMI-1640 culture medium (positive growth control), or supplemented with dilutions of DMSO, or fluconazole (Sigma-Aldrich, St. Louis, MO, USA) as a commercial drug. To check the background turbidity of reagents and the sterility of the procedure, dilutions of each compound were incubated in RPMI-1640 culture medium, without yeast inoculum. The inoculated plate was incubated at 37 °C for 24 h, and subsequently the optical density at 630 nm was measured by the Multiskan Ascent microplate reader (Thermo Fisher Scientific Inc.). The effectiveness of the compounds was expressed as percent inhibition relative to the positive growth control when the inhibition […] the 50% at 100 µM. The IC50 value was determined by interpolation of the dose–response curves generated by plotting the percentages of growth inhibition, relative to the drug-free control (set to 100% of growth), as a function of the tested concentrations (on a logarithm scale). Statistical analysis was carried out by the nonlinear regression method using GraphPad Prism version 5.0 for Windows (GraphPad Software, San Diego, CA, USA). All assays were performed in triplicate and at least two independent experiments were carried out.

[1] = Cytotoxicity test on Vero cells (WST8/CCK-8 cell viability); type: cell-based, African green monkey; conditions: African green monkey, Vero cells (ATCC CCL-81), Vero cells, mean and 95% confidence interval
Protocol: (§2) African green monkey kidney cells (Vero ATCC CCL-81) were cultured in Eagle’s Minimal Essential Medium (MEM) (Sigma-Aldrich), supplemented with 10% fetal bovine serum (FBS) (Carlo Erba Reagents, Milan, Italy), 100 U/mL penicillin, and 100 µg/mL streptomycin at 37 °C with 5% CO2. For experiments, cells were seeded into 96-well plates at 10^4 cells/well, and incubated at 37 °C for 24 h. Following washes with PBS, cell monolayer was incubated with 100 µL of serially 2-fold dilution of the compound in the range 200–6.25 µM. Both untreated cells and cells incubated with medium containing solvent dilutions were included in each experiment as controls.
(§3) The cell viability was assessed by a WST8-based assay according to the manufacturer’s instructions (CCK-8, Cell Counting Kit-8, Dojindo Molecular Technologies, Rockville, MD, USA). After 72 h of incubation, culture medium was removed from each well, the monolayer was washed with PBS, and 100 µL of fresh medium containing 10 µL of CCK-8 solution were added. Following a 2 h at 37 °C, the absorbance was measured at 450/630 nm; data were calculated as the percentage of the cell viability relative to the untreated controls.

Vero cells (ATCC CCL-81) = assay: as above; type: cell-based, African green monkey; conditions: 72 h, up to the highest concentration of 200 μM
Protocol: as §2, §3

C. albicans = assay: In vitro susceptibility testing, C. albicans clinical isolate; type: cell-based; conditions: Candida albicans
Source text: (§4) The yeasts included in the present study were Candida albicans ATCC 10231 (American Type Culture Collection) and a collection of yeasts recovered from a variety of clinical specimens, i.e., blood, urine, genital swabs, bronchoalveolar lavage, nail specimens, collected at the Microbiology Unit, St. Orsola Malpighi University Hospital, Bologna, Italy. The clinical strain isolates were identified by standard procedures, including colony morphology on chromogenic agar (CHROMagar Candida medium, Becton Dickinson, Heidelberg, Germany) and confirmed by MALDI Biotyper System using matrix-assisted laser desorption ionization–time of flight mass spectrometry (MALDI-TOF MS, Bruker Daltonik, GmbH, Germany).
as §1

C. parapsilosis = assay: In vitro susceptibility testing, C. parapsilosis clinical isolate; type: cell-based; conditions: Lodderomyces parapsilosis
Source text: as §4, §1

C. lusitaniae = assay: In vitro susceptibility testing, C. lusitaniae clinical isolate; type: cell-based; conditions: Clavispora lusitaniae
Source text: as §4, §1

C. tropicalis = assay: In vitro susceptibility testing, C. tropicalis clinical isolate; type: cell-based; conditions: Candida tropicalis
Source text: as §4, §1

C. krusei = assay: In vitro susceptibility testing, C. krusei clinical isolate; type: cell-based; conditions: Pichia kudriavzevii
Source text: as §4, §1

C. glabrata = assay: In vitro susceptibility testing, C. glabrata clinical isolate; type: cell-based; conditions: Nakaseomyces glabratus
Source text: as §4, §1

C. utilis = assay: In vitro susceptibility testing, C. utilis clinical isolate; type: cell-based; conditions: Williopsis jadinii
Source text: as §4, §1

C. neoformans = assay: In vitro susceptibility testing, C. neoformans clinical isolate; type: cell-based; conditions: Cryptococcus neoformans
Source text: as §4, §1

S. clavata = assay: In vitro susceptibility testing, S. clavata clinical isolate; type: cell-based
Source text: as §4, §1

R. mucilaginosa = assay: In vitro susceptibility testing, R. mucilaginosa clinical isolate; type: cell-based
Source text: as §4, §1

[2] = ATCC10231, C. albicans ATCC 10231, mean and 95% confidence interval, read-out: IC50
[3] = ATCC10231, C. albicans ATCC 10231, mean and 95% confidence interval, read-out: IC50 [μg/mL]
[4] = clinical isolate, mean and 95% confidence interval, read-out: IC50 C. albicans
[5] = clinical isolate, read-out: IC50 C. parapsilosis
[6] = clinical isolate, read-out: IC50 C. lusitaniae
[7] = clinical isolate, read-out: IC50 C. tropicalis
[8] = clinical isolate, read-out: IC50 C. krusei
[9] = clinical isolate, read-out: IC50 C. glabrata
[10] = clinical isolate, read-out: IC50 C. utilis
[11] = clinical isolate, read-out: IC50 C. neoformans
[12] = clinical isolate, read-out: IC50 S. clavata
[13] = clinical isolate, read-out: IC50 R. mucilaginosa

Row | SMILES | IC50 (C. albicans ATCC 10231; [2]) | IC50 (C. albicans ATCC 10231; [3]) | inhibition at 100 µM (C. albicans ATCC 10231; C. albicans ATCC 10231) | CC50 at 72 h ([1]; read-out: CC50) | CC50 at 72 h ([1]; read-out: CC50 [μg/mL]) | toxicity on Vero cells, in words (Vero cells (ATCC CCL-81)) | IC50 (C. albicans; [4]) | IC50 (C. parapsilosis; [5]) | IC50 (C. lusitaniae; [6]) | IC50 (C. tropicalis; [7]) | IC50 (C. krusei; [8]) | IC50 (C. glabrata; [9]) | IC50 (C. utilis; [10]) | IC50 (C. neoformans; [11]) | IC50 (S. clavata; [12]) | IC50 (R. mucilaginosa; [13]) | further results
1 | C#CCOc1ccc(C(=O)/C=C/c2ccc([N+](=O)[O-])cc2)c(OC)c1 [Compound 14] | 39.2 µM | 11.5 µg/mL | 63.6 ± 6.8% | > 200 µM | > 58.6 µg/mL | did not display any toxicity | 31.4 µM and 10.6 µg/mL | 100 µM and 33.7 µg/mL | 48.8 µM and 14.8 µg/mL | 200 µM and 67.5 µg/mL | 200 µM and 67.5 µg/mL | 200 µM and 67.5 µg/mL | 33.7 µM and 11.4 µg/mL | 28.4 µM and 9.6 µg/mL | 100 µM and 33.7 µg/mL | 100 µM and 33.7 µg/mL | 
2 | CC(C)=CCOc1ccc(C(=O)/C=C/c2cccnc2)c(O)c1 [Compound 20] | 16.8 µM | 4.9 µg/mL | 81.5 ± 4.7% | 54.3 µM | 15.9 µg/mL | moderately toxic |  |  |  |  |  |  |  |  |  |  | 
3 | COc1cc(OCCN2CCN(c3ccccc3)CC2)ccc1C(=O)/C=C/c1ccc(F)cc1 [Compound 28, (E)-3-(4-Fluorophenyl)-1-(2-methoxy-4-(2-(4-phenylpiperazin-1-yl)ethoxy)phenyl)prop-2-en-1-one] | 55.9 µM | 27.7 µg/mL | 99.1 ± 0.7% | > 200 µM | > 99.2 µg/mL | did not display any toxicity | 48.1 µM and 23.9 µg/mL | 36.8 µM and 18.3 µg/mL | 26.5 µM and 13.1 µg/mL | 26.6 µM and 13.2 µg/mL | 63.5 µM and 31.5 µg/mL | 37.1 µM and 18.4 µg/mL | 29.6 µM and 14.7 µg/mL | 17.7 µM and 8.8 µg/mL | 27.9 µM and 13.8 µg/mL | 48.5 µM and 21.4 µg/mL | IC50 (C. albicans ATCC 10231; ATCC10231, Table S1, variable slope best-fit, C. albicans ATCC 10231, read-out: IC50): 55.6 µM; IC50 (C. albicans; Table S1, best-fit, C. albicans clinical isolate, read-out: IC50): 48.1 µM; IC50 (C. parapsilosis; Table S1, best-fit, C. parapsilosis, read-out: IC50): 31.3 µM; IC50 (C. lusitaniae; Table S1, best-fit, C. lusitaniae, read-out: IC50): 26.5 µM; IC50 (C. tropicalis; Table S1, best-fit, C. tropicalis, read-out: IC50): 26.6 µM; IC50 (C. krusei; Table S1, best-fit, C. krusei, read-out: IC50): 63.6 µM; IC50 (C. glabrata; Table S1, best-fit, C. glabrata, read-out: IC50): 35.9 µM; IC50 (C. utilis; Table S1, best-fit, C. utilis, read-out: IC50): 29.6 µM; IC50 (C. neoformans; Table S2, best-fit, C. neoformans, read-out: IC50): 17.7 µM; IC50 (S. clavata; Table S2, best-fit, S. clavata, read-out: IC50): 28 µM; IC50 (R. mucilaginosa; Table S2, best-fit, R. mucilaginosa, read-out: IC50): 46.2 µM
4 | OC(Cn1cncn1)(Cn1cncn1)c1ccc(F)cc1F [FLC, fluconazole, reference compound] | 0.25 µM | 0.07 µg/mL |  |  |  |  | 420 nM and 0.13 µg/mL | 37 nM and 0.01 µg/mL | 50 nM and 0.015 µg/mL | 0.4 µM | 64.6 µM and 19.8 µg/mL | 14.4 µM and 4.4 µg/mL | 1.56 µM and 0.5 µg/mL | 256 µM and 78.4 µg/mL | 40 nM and 0.012 µg/mL | 1.6 mM and 491 µg/mL | 
5 | CC(C)=CCOc1ccc(C(=O)/C=C/c2ccc([N+](=O)[O-])cc2)cc1 [Compound 34, (E)-1-(4-((3-methylbut-2-en-1-yl)oxy)phenyl)-3-(4-nitrophenyl)prop-2-en-1-one] |  |  | 37.9 ± 5.2% |  |  |  |  |  |  |  |  |  |  |  |  |  | antifungal activity against C. albicans growth, in words (C. albicans ATCC 10231; screen at 100 μM, C. albicans ATCC 10231): inactive; melting point: 100 to 102 °C
